Test results: patent US11053226B2, “KRAS G12C inhibitors and methods of using the same” (Amgen Inc., priority 2018, dated 2021)
Like-named read-outs stand apart in the source and are kept apart here.

Assays:
[1] = molecular target: GDP-bound KRAS protein (aa 1-169), containing both G12C and C118A amino acid substitutions (Homo sapiens (Human), UniProt P01116, C118A/G12C); assay: Coupled Nucleotide Exchange Assay; assay type: biochemical
Procedure: (§1) For compounds in Table 9, the following assay conditions were employed:
Coupled Nucleotide Exchange Assay:
The assay plates were then read on a PerkinElmer EnVision Multilabel Reader, using AlphaScreen® technology, and data were analyzed using a 4-parameter logistic model to calculate IC50 values.

[2] = tested on: Phosphorylation of ERK1/2 in MIA PaCa-2 cells; assay: Phospho-ERK1/2 MSD Assay; assay type: cell-based; details: MiaPaCa-2 cells
Procedure: as §1
Phospho-ERK1/2 MSD Assay:
Sixteen hours prior to compound treatment, MIA PaCa-2 cells were seeded in 96-well cell culture plates at a density of 25,000 cells/well and incubated at 37° C., 5% CO2. […] Following compound treatment, cells were stimulated with 10 ng/mL EGF (Roche 11376454001) for 10 min, washed with ice-cold Dulbecco's phosphate-buffered saline, no Ca^2+ or Mg^2+ (ThermoFisher Scientific 14190144), and then lysed in RIPA buffer (50 mM Tris-HCl pH 7.5, 1% Igepal, 0.5% sodium deoxycholate, 150 mM NaCl, and 0.5% sodium dodecyl sulfate) containing protease inhibitors (Roche 4693132001) and phosphatase inhibitors (Roche 4906837001). […] Assay plates were read on a Meso Scale Discovery Sector Imager 6000, and data were analyzed using a 4-parameter logistic model to calculate IC50 values.

[3] = tested on: Phosphorylation of ERK1/2 in A549 cells; assay: Phospho-ERK1/2 MSD Assay (A549); assay type: cell-based
[4] = read-out: Coupled Exchange IC50 (5 min), 5 min compound pre-incubation
[5] = read-out: Coupled Exchange IC50 (2 h), 2 h compound pre-incubation
[6] = read-out: Coupled Exchange IC50 (20 h), 20 h compound pre-incubation
[7] = Homo sapiens, MIA PaCa-2, read-out: pERK IC50 (4 h), 4 h compound treatment
[8] = Homo sapiens, read-out: pERK IC50 (4 h), 4 h compound treatment
[9] = Homo sapiens, MIA PaCa-2, 4 h, read-out: pERK IC50 (4 h, MiaPaCa-2), 4 h compound treatment
[10] = Homo sapiens, A549, 4 h, read-out: pERK IC50 (4 h, A549), 4 h compound treatment

GDP-bound KRAS protein (aa 1-169), containing both G12C and C118A amino acid substitutions, sequence (P01116 other isoform, or with tags, fused parts or gaps G12C/C118A): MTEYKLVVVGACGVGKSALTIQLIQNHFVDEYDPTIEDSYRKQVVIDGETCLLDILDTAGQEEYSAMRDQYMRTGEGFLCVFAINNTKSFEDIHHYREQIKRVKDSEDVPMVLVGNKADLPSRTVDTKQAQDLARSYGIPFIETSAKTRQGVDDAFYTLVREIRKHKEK

Row | SMILES | IC50 [1, 4] [nM] | IC50 [1, 5] [nM] | IC50 [1, 6] [nM] | IC50 [2, 7] [nM] | IC50 [3, 8] [nM] | IC50 [2, 9] [nM] | IC50 [3, 10] [nM] | IC50 ([2]; read-out: pERK IC50 (4 h, MiaPaCa-2), 4 h compound treatment) [nM] | IC50 ([3]; read-out: pERK IC50 (4 h, A549), 4 h compound treatment) [nM]
1 | C=CC(=O)N1CC(NC(=O)Cn2cc(I)c3cc(Cl)ccc32)C1 [Example 139] | > 250000 | 4150 | 520 | 40600 | > 100000 | – | – | – | –
2 | COc1cccc2c1CCN(C(=O)c1cn(CC(=O)NC3CN(C(=O)/C=C/CN(C)C)C3)c3ccc(Br)cc13)C2 [Example 149] | – | 3600 | 680 | – | – | 50700 | > 100000 | – | –
3 | C=CC(=O)N1CC(NC(=O)Cn2c(C)c(-c3ccccc3C(C)C)c3cc(Cl)ccc32)C1 [Example 5-3, 2-(5-Chloro-2-methyl-3-(2-(2-propanyl)phenyl)-1H-indol-1-yl)-N-(1-(2-propenoyl)-3-azetidinyl)acetamide] | 4110 | 630 | 220 | 2060 | > 33300 | – | – | – | –
4 | C=CC(=O)N1CC(NC(=O)Cn2c3ccc(Br)cc3c3ccc(Oc4ccccn4)nc32)C1 [Example 57] | – | 990 | 140 | 6810 | > 100000 | – | – | – | –
5 | C=CC(=O)N1CC(NC(=O)Cn2cc(C(=O)N3CCc4c(C)cccc4C3)c3cc(Br)ccc32)C1 [Example 86] | – | 680 | 170 | – | – | 14100 | > 100000 | – | –
6 | C=CC(=O)N1CC(NC(=O)Cn2c(C)c(C(=O)N3CCc4c(cccc4OC)C3)c3cc([N+](=O)[O-])ccc32)C1 [Example 17] | – | 1220 | 300 | – | – | – | – | 1830 | > 100000
7 | C=CC(=O)N1CC(N(C)C(=O)Cn2c(C)c(C(=O)N3CCN(c4ccc(C#N)cn4)CC3)c3cc(Br)ccc32)C1 [Example 27] | – | 770 | 240 | – | – | 2500 | > 100000 | – | –
8 | C=CC(=O)N1CC(NC(=O)Cn2c(C)c(-c3cnccc3C3CC3)c3cc(Cl)ccc32)C1 [Example 18] | – | 970 | – | 1850 | > 100000 | – | – | – | –
9 | C=CC(=O)N1CC(NC(=O)Cn2c(C)c(-c3cncnc3C(C)C)c3cc(Cl)ccc32)C1 [Example 5-2, 2-(5-Chloro-2-methyl-3-(4-(2-propanyl)-5-pyrimidinyl)-1H-indol-1-yl)-N-(1-(2-propenoyl)-3-azetidinyl)acetamide] | – | 1050 | – | 1490 | > 100000 | – | – | – | –
10 | C=CC(=O)N1CC(NC(=O)Cn2c(C3CC3)c(C(=O)N3CCOC(C)(C)C3)c3cc(Cl)cc(C)c32)C1 [Example 23] | – | 950 | – | – | – | 2350 | > 100000 | – | –
11 | C=CC(=O)N1CC(NC(=O)Cn2c(C)c(-c3ccccc3OC)c3cc(Cl)ccc32)C1 [Example 125] | – | 2750 | – | 33600 | > 100000 | – | – | – | –
12 | C=CC(=O)N1CC(NC(=O)Cn2c(C)c(C(=O)N3CCc4c(ccnc4OC)C3)c3cc(Br)ccc32)C1 [Example 12] | – | 510 | 170 | – | – | 1650 | > 100000 | – | –
13 | C=CC(=O)N1CC(N(C)C(=O)Cn2c(CC3CC3)c(C(=O)N3CCc4c(cccc4OC)C3)c3cc(Cl)cc(C)c32)C1 [Example 4-4, 2-(5-Chloro-2-(cyclopropylmethyl)-3-((5-methoxy-3,4-dihydro-2(1H)-isoquinolinyl)carbonyl)-7-methyl-1H-indol-1-yl)-N-methyl-N-(1-(2-propenoyl)-3-azetidinyl)acetamide] | – | 100 | – | – | – | 180 | 29300 | – | –
14 | C=CC(=O)N1CC(NC(=O)Cn2cc(C(=O)N3CCc4c(C)cccc4C3)c3cc(Br)cc(C)c32)C1 [Example 94] | – | 210 | 130 | – | – | 16600 | > 100000 | – | –
15 | C=CC(=O)N1CC(NC(=O)Cn2c3ccc(Br)cc3c3ccc(Oc4cccnc4)nc32)C1 [Example 55] | – | 950 | 230 | 5930 | > 100000 | – | – | – | –
16 | C=CC(=O)N1CC(NC(=O)Cn2cc(Cl)c3cc(Br)ccc32)C1 [Example 154] | 56200 | 5120 | 860 | 52100 | > 100000 | – | – | – | –
17 | C=CC(=O)N1CC(NC(=O)Cn2c(C3CC3)c(C(=O)N3CCCC(C)(C)C3)c3cc(Cl)cc(C)c32)C1 [Example 11] | – | 660 | – | – | – | 1600 | 36400 | – | –
